Test results from patent US20120226031A1, “PALMARUMYCIN BASED INHIBITORS OF THIOREDOXIN AND METHODS OF USING SAME” (ARIZONA BOARD OF REGENTS, ACTING ON BEHALF OF THE …, priority 2005, published 2012).
Where two headings read alike, the source gives them in different places.

How the values were obtained:
[1] = test system: MCF-7 human breast cancer cells; experiment: MCF-7 breast cancer cell growth inhibition; assay type: cell-based
Protocol: MCF-7 human breast cancer cells were grown in medium containing 1 μM selenium (Se) for 7 days which increased cellular thioredoxin reductase activity by about 5 fold as previously reported.

[2] = target: T1, human thioredoxin reductase (Homo sapiens, UniProt Q16881); experiment: Inhibition of purified human thioredoxin reductase (TrxR/TR); assay type: biochemical
T1 construct: (placenta); from tissue; host or cells: human placenta
T1 sequence (Q16881 151-649 limits assumed): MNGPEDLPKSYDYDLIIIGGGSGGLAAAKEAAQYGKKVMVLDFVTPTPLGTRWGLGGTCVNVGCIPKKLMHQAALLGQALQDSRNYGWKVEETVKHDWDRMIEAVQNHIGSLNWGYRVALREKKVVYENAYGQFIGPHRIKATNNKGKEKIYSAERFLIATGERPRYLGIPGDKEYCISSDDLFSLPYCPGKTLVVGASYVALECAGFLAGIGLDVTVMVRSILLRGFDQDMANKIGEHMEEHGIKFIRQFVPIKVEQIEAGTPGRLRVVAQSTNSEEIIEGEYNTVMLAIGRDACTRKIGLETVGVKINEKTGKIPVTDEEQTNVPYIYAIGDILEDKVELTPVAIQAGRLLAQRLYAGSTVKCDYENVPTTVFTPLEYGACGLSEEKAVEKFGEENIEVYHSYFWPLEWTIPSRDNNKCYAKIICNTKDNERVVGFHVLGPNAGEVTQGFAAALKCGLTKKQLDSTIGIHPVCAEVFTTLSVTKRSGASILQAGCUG

[3] = Aqueous solubility; assay type: physicochemical
[4] = Plasma levels in mice after i.v. administration; assay type: in vivo, mouse; parameters: dose or concentration left out as unconfirmed; settings: after PX-916 i.v. to mice
Protocol: (§1) Two metabolite peaks could be seen at 5 minutes, but were undetectable by 30 minutes.

[5] = Stability in fresh mouse plasma at room temperature; assay type: in vitro ADME
Protocol: as §1

[6] = pH dependent stability in water / 0.1M sodium phosphate buffer; assay type: physicochemical; settings: for half-life at 100 g/ml / T1/2: 100 g/ml in 0.1M sodium phosphate buffer
Protocol: PX-916 was stable as a stock solution in ethanol at room temperature with a half life of >5 days. […] Therefore, for in vitro studies PX-916 was used as a stock solution in ethanol, and for in vivo studies made fresh in pH 4.0 buffer vehicle.
Further palmarumycin analogs were synthesized and tested. The following analogs were synthesized: eee269-II, eee86-III, eee263-II and eee273-II. The stability of the analogs was measured in various solutions.

[7] = Stability of prodrugs in human plasma (formation of parent compound); assay type: in vitro ADME; settings: first 20 min of incubation at 1 mg/ml and 33° C.
Protocol: (§2) The stability of the analogs and formation of the parent compound in plasma was measured and is presented in FIG. 7, FIG. 8 and Table 6 (measured by the formation of parent compound over the first 20 min of incubation at 1 mg/ml and at 33° C.), below.

[8] = Stability of prodrugs in mouse plasma (formation of parent compound); assay type: in vitro ADME; settings: first 20 min of incubation at 1 mg/ml and 33° C.
Protocol: as §2

[9] = Stability of prodrugs in ES1e mouse plasma (formation of parent compound); assay type: in vitro ADME; settings: first 20 min of incubation at 1 mg/ml and 33° C.
Protocol: as §2

[10] = Homo sapiens, MCF7, Table 1, read-out: MCF-7 growth inhibition IC50
[11] = Table 1, read-out: TrxR inhibitory activity IC50
[12] = Table 2, read-out: Inhibition of human thioredoxin reductase IC50

SMILES	IC50 [1, 10]	IC50 [2, 11]	IC50 [2, 12]	half-life at 100 g/ml ([6]; pH 4.0)	half-life at 100 g/ml ([6]; pH 7.0)	also measured
CC(C)C(N)C(=O)Oc1ccc2c3c(cccc13)OC1(C=CC(=O)c3ccccc31)O2 (stereo not shown) [Compound 11]	2200 nM	620 nM				
O=C1C=CC2(Oc3cccc4c(OCCN5CCOCC5)ccc(c34)O2)c2ccccc21 (stereo not shown) [Compound 13]	1200 nM	1600 nM				
O=C1C=CC2(Oc3cccc4c(OCCN5CCOCC5)ccc(c34)O2)c2cccc(O)c21 (stereo not shown) [Compound 14]	2600 nM	4200 nM				
O=C1C=CC2(Oc3cccc4c(OC5OC(CO)C(O)C(O)C5O)ccc(c34)O2)c2cccc(O)c21 (stereo not shown) [eee86-III]				> 4.17 days	> 4.17 days	
CC(C)(N)C(=O)Oc1ccc2c3c(cccc13)OC1(C=CC(=O)c3c(O)cccc31)O2 (stereo not shown) [eee263-II]						T1/2 ([6]; pH 4.0): >100 h; T1/2 ([6]; pH 7.0): >100 h; formation of parent compound, Human plasma [7]: 81 area/20 min; formation of parent compound, Mouse Plasma [8]: 42 area/20 min; formation of parent compound, ES1e mouse plasma [9]: 82 area/20 min
CC(C)(NNC1CC(=O)c2c(O)cccc2C12Oc1cccc3c(O)ccc(c13)O2)C(N)=O (stereo not shown) [eee269-II]				> 4.17 days	0.00833 days	stability in aqueous solutions ([6]; in words): unstable in aqueous solutions
NC(Cc1ccccc1)C(=O)Oc1ccc2c3c(cccc13)OC1(C=CC(=O)c3c(O)cccc31)O2 (stereo not shown) [eee273-II]				> 4.17 days	> 4.17 days	solubility at 1 mg/ml ([3]; 1 mg/ml, plasma stability study): very insoluble

More lines, main results first:

IC50 [1, 10]	IC50 [2, 11]	IC50 [2, 12]	half-life at 100 g/ml ([6]; pH 4.0)	half-life at 100 g/ml ([6]; pH 7.0)	SMILES	also measured
		3200 nM			COc1ccc2c3c(cccc13)OC1(C=CC(=O)c3ccccc31)O2 (stereo not shown) [PX-911]	IC50 ([1]; Homo sapiens, MCF7, Table 2, read-out: Inhibition of MCF-7 breast cancer cell growth IC50): 9200 nM
2600 nM	200 nM	270 nM			O=C1C=CC2(Oc3cccc4c(O)ccc(c34)O2)c2cccc(O)c21 (stereo not shown) [PX-960]	solubility ([3]; water, read-out: water solubility): < 100 µg/mL; detection of PX-960 in plasma ([4]; at 5 minutes): only a very small peak; detection of PX-960 in plasma ([4]; at 30 minutes): No PX-960 was detected; IC50 ([1]; Homo sapiens, MCF7, read-out: Inhibition of MCF-7 breast cancer cell growth IC50): 4100 nM; half life in mouse plasma [5]: about 31 minutes; half-life [5]: ~31 min
		350 nM			O=C1C=CC2(Oc3cccc4cccc(c34)O2)c2cccc(O)c21 [palmarumycin C1, palmarumycin CP1, reference compound]	solubility in aqueous media ([3]; in words): almost insoluble in aqueous media; IC50 ([1]; Table 2, read-out: Inhibition of MCF-7 breast cancer cell growth IC50): 1000 nM; IC50 ([1]; text b151, summary of Table 2, read-out: concentration of cell growth inhibition of MCF-7 cells): 1000 to 3000 nM
